Experimental data: US9765092B2, “Tricyclic piperidine compounds” (ACTELION PHARMACEUTICALS LTD, priority 2013, dated 2017)

Target: human TPH1 (Homo sapiens (Human), UniProt P17752)
Assay: Biochemical in vitro assay using fluorescence readout (TPH1 inhibition)
Details: full length human TPH1, 40 μM L-tryptophan, 15° C., 60 minutes, fluorescence at 540 nm; mean if determined several times
Description: Biochemical In Vitro Assay Using Fluorescence Readout
To generate the enzyme, full length human TPH1 is cloned into the plasmid pET20b(+) (Novagen) and expressed in E. coli. The bacterial cells are ruptured by sonication on ice and the lysate is cleared by centrifugation. The resulting protein in the pellet is re-extracted and TPH1 is purified from the obtained lysate by affinity chromatography using a pterin cosubstrate analog immobilized to the resin of the column. The protein is further purified by size exclusion chromatography to remove protein aggregates. The activity of TPH1 is determined by using a fluorescence assay. The enzyme activity assay is carried out at 15° C. with atmosphere oxygen for the duration of 60 minutes in a volume of 64 μl. The reaction is carried out in a 0.1 M Tris-HCl buffer, adjusted to pH 7.6, containing 1 mM DTT, 0.2 mg/mL catalase, 100 μM (±)-6-methyl-5,6,7,8-tetrahydropterine dihydrochloride, 40 μM L-tryptophan, and 40-80 nM of TPH1. The reaction is started by bringing together L-tryptophan with all the other reaction substituents and stopped by quenching with perchloric acid (HClO4). The amount of 5-hydroxy-L-tryptophan produced during the enzymatic reaction is determined by fluorescence readout. Fluorescence, as determined at 540 nm when excited at 300 nm wavelength, increases proportionally to the 5-hydroxy-L-tryptophan formed. Compounds are prepared as 10 mM stock solution in DMSO, then diluted in 384-well plates using DMSO followed by a transfer of the dilutions into the assay plate. Fluorescence is measured for each well and the fluorescence at 540 nm wavelength is compared to the fluorescence of the vehicle in place of compound. Inhibitory activities of example compounds with respect to the TPH1 protein are determined by calculating the IC50 value (the concentration of compound needed to inhibit 50% of the enzyme activity). The calculated IC50 values may fluctuate depending on the daily biochemical assay performance. Fluctuations of this kind are known to those skilled in the art.

human TPH1, sequence (P17752 whole entry): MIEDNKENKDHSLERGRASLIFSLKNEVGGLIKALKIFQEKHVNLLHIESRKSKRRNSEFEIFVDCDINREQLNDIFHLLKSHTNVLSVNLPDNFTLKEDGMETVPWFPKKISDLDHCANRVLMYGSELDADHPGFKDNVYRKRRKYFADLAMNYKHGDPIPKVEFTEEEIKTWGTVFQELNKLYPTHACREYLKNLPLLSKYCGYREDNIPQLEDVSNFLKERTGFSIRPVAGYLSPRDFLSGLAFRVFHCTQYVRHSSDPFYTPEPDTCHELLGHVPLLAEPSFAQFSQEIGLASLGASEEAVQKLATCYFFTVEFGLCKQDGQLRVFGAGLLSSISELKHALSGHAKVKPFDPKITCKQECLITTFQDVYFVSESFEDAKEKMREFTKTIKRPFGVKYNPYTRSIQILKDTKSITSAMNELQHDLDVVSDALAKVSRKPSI

| Compound | IC50 [nM] |
| --- | --- |
| CNC(=O)c1csc(C2c3c(nc4sc(C)nn34)CCN2C(=O)COc2ccc(N3CCOCC3)nc2Cl)n1 (stereo not shown) [Example 1.44.2, 2-(6-(2-((2-Chloro-6-morpholinopyridin-3-yl)oxy)acetyl)-2-methyl-5,6,7,8-tetrahydro-[1,3,4]thiadiazolo[2′,3′:2,3]imidazo[4,5-c]pyridin-5-yl)-N-methylthiazole-4-carboxamide] | 5 |
| Cc1nn2c3c(nc2s1)CCN(C(=O)COc1ccc(N2CCOCC2)nc1Cl)C3c1nc(C(=O)O)cs1 (stereo not shown) [Example 1.41.1, 2-(6-(2-((2-chloro-6-morpholinopyridin-3-yl)oxy)acetyl)-2-methyl-5,6,7,8-tetrahydro-[1,3,4]thiadiazolo[2′,3′:2,3]imidazo[4,5-c]pyridin-5-yl)thiazole-4-carboxylic acid] | 65 |
| Cc1nn2c3c(nc2s1)CCN(C(=O)COc1ccc(N2CCOCC2)nc1Cl)C3c1cc(C(=O)N(C)C)cs1 (stereo not shown) [Example 1.9.1, 5-(6-(2-((2-chloro-6-morpholinopyridin-3-yl)oxy)acetyl)-2-methyl-5,6,7,8-tetrahydro-[1,3,4]thiadiazolo[2′,3′:2,3]imidazo[4,5-c]pyridin-5-yl)-N,N-dimethyl-thiophene-3-carboxamide] | 5 |
| Cc1nn2c3c(nc2s1)CCN(C(=O)COc1ccc(N2CC(F)(F)C2)nc1Cl)C3c1cnc(N(C)C)s1 (stereo not shown) [Example 1.22.8, 2-((2-Chloro-6-(3,3-difluoroazetidin-1-yl)pyridin-3-yl)oxy)-1-(5-(2-(dimethylamino)-thiazol-5-yl)-2-methyl-7,8-dihydro-[1,3,4]thiadiazolo[2′,3′:2,3]imidazo[4,5-c]pyridin-6(5H)-yl)ethanone] | 19 |

Same assay, conditions: human TPH1, fluorescence readout

| Compound | IC50 [nM] |
| --- | --- |
| N#Cc1ccc(OCC(=O)N2CCc3nc4sccn4c3C2c2ncc(C3CC3)cc2F)c(Cl)n1 (stereo not shown) [Example 6.7.2, 6-chloro-5-(2-(5-(5-cyclopropyl-3-fluoropyridin-2-yl)-7,8-dihydrothiazolo[2′,3′:2,3]imidazo[4,5-c]pyridin-6(5H)-yl)-2-oxoethoxy)picolinonitrile] | 17 |
| Cc1nn2c3c(nc2s1)CCN(C(=O)COc1ccc(C(=O)N(C)C)nc1Cl)C3c1ncc(Cl)cc1F (stereo not shown) [Example 1.33.3, 6-chloro-5-(2-(5-(5-chloro-3-fluoropyridin-2-yl)-2-methyl-7,8-dihydro-[1,3,4]thiadiazolo[2′,3′:2,3]imidazo[4,5-c]pyridin-6(5H)-yl)-2-oxoethoxy)-N,N-dimethylpicolinamide] | 6 |
| Cc1nn2c3c(nc2s1)CCN(C(=O)COc1ccc(CN2CCOCC2)nc1Cl)C3c1cccnc1F (stereo not shown) [Example 1.2.1, 2-((2-chloro-6-(morpholinomethyl)pyridin-3-yl)oxy)-1-(5-(2-fluoropyridin-3-yl)-2-methyl-7,8-dihydro-[1,3,4]thiadiazolo[2′,3′:2,3]imidazo[4,5-c]pyridine-6(5H)yl) ethanone] | 208 |
| Cc1nn2c3c(nc2s1)CCN(C(=O)COc1ccc(Cl)cc1C)C3c1cc(CN(C)C)cs1 (stereo not shown) [Example 1.8.3, 2-(4-chloro-2-methylphenoxy)-1-(5-(4-((dimethylamino)methyl)thiophen-2-yl)-2-methyl-7,8-dihydro-[1,3,4]thiadiazolo [2′,3′:2,3]imidazo[4,5-c]pyridin-6(5H)-yl)ethanone] | 95 |
| CCc1nc(C(=O)NC2CC2)ccc1OCC(=O)N1CCc2nc3sc(C)nn3c2C1c1sccc1F (stereo not shown) [Example 1.71.1, N-cyclopropyl-6-ethyl-5-(2-(5-(3-fluorothiophen-2-yl)-2-methyl-7,8-dihydro-[1,3,4]thiadiazolo[2′,3′:2,3]-imidazo[4,5-c]pyridin-6(5H)-yl)-2-oxoethoxy)picolinamide] | 12 |
| O=C(COc1cccnc1Cl)N1CCc2nc3sccn3c2C1c1nc2ccccc2s1 (stereo not shown) [Example 6.12.6, 1-(5-(benzo[d]thiazol-2-yl)-7,8-dihydrothiazolo-[2′,3′:2,3]imidazo[4,5-c]pyridin-6(5H)-yl)-2-((2-chloropyridin-3-yl)oxy)ethanone] | 101 |
| 2-(4-(aminomethyl)-2-chlorophenoxy)-1-(5-(3-fluorothiophen-2-yl)-2-methyl-7,8-dihydro-[1,3,4]thiadiazolo[2′,3′:2,3]imidazo[4,5-c]pyridin-6(5H)-yl)ethanone [Example 1.23.7] | 38 |
| COc1ccc2c(OCC(=O)N3CCc4nc5sc(C)nn5c4C3c3ccc(Cl)cc3F)cc(C)nc2c1 (stereo not shown) [Example 1.4.63, 1-(5-(4-chloro-2-fluorophenyl)-2-methyl-7,8-dihydro-[1,3,4]thiadiazolo[2′,3′:2,3]imidazo[4,5-c]pyridin-6(5H)-yl)-2-((7-methoxy-2-methylquinolin-4-yl)oxy)ethan-1-one] | 65 |
| Cc1nn2c3c(nc2s1)CCN(C(=O)COc1ccc(C(F)(F)F)nc1Cl)C3c1scnc1C (stereo not shown) [Example 1.32.4, 2-((2-chloro-6-(trifluoromethyl)pyridin-3-yl)oxy)-1-(2-methyl-5-(4-methylthiazol-5-yl)-7,8-dihydro-[1,3,4]thiadiazolo [2′,3′:2,3]imidazo[4,5-c]pyridin-6(5H)-yl)ethanone] | 21 |
| CCc1nn2c3c(nc2s1)CCN(C(=O)COc1ccc(N2CCN(C)CC2)nc1Cl)C3c1ccc(Cl)cc1F (stereo not shown) [Example 3.1.4, 1-(5-(4-chloro-2-fluorophenyl)-2-ethyl-7,8-dihydro-[1,3,4]thiadiazolo[2′,3′:2,3]imidazo[4,5-c]pyridin-6(5H)-yl)-2-((2-chloro-6-(4-methylpiperazin-1-yl)pyridin-3-yl)oxy)ethanone] | 10 |
| Cc1nn2c3c(nc2s1)CCN(C(=O)COc1ccc(I)nc1Cl)C3c1ccc(Cl)cc1F (stereo not shown) [Example 1.4.10, 1-(5-(4-chloro-2-fluorophenyl)-2-methyl-7,8-dihydro-[1,3,4]thiadiazolo[2′,3′:2,3]imidazo[4,5-c]pyridin-6(5H)-yl)-2-((2-chloro-6-iodopyridin-3-yl)oxy)ethanone] | 8 |
| Cc1nn2c3c(nc2s1)CCN(C(=O)COc1ccc(N2CCOCC2)nc1Cl)C3c1cnc(OC(F)F)cc1C (stereo not shown) [Example 1.15.2, 2-((2-chloro-6-morpholinopyridin-3-yl)oxy)-1-(5-(6-(difluoromethoxy)-4-methylpyridin-3-yl)-2-methyl-7,8-dihydro-[1,3,4]thiadiazolo[2′,3′:2,3]imidazo[4,5-c]pyridin-6(5H)-yl)ethanone] | 7 |
| CNC(=O)c1cc(F)c(C2c3c(nc4sc(C)nn34)CCN2C(=O)COc2ccc(C#N)cc2Cl)s1 (stereo not shown) [Example 1.25.8, 5-(6-(2-(2-chloro-4-cyanophenoxy)acetyl)-2-methyl-5,6,7,8-tetrahydro-[1,3,4]thiadiazolo[2′,3′:2,3]imidazo[4,5-c]pyridin-5-yl)-4-fluoro-N-methylthiophene-2-carboxamide] | 43 |
| Cc1nc(C2c3c(nc4sc(C)nn34)CCN2C(=O)COc2ccc(N3CCOCC3)nc2Cl)c(C)o1 (stereo not shown) [Example 1.67.1, 2-((2-chloro-6-morpholinopyridin-3-yl)oxy)-1-(5-(2,5-dimethyloxazol-4-yl)-2-methyl-7,8-dihydro-[1,3,4]thiadiazolo [2′,3′:2,3]imidazo[4,5-c]pyridin-6(5H)-yl)ethanone] | 25 |
| Cc1nn2c3c(nc2s1)CCN(C(=O)COc1ccc(NS(=O)(=O)C2CC2)nc1Cl)C3c1sccc1F (stereo not shown) [Example 1.23.9, N-(6-chloro-5-(2-(5-(3-fluorothiophen-2-yl)-2-methyl-7,8-dihydro-[1,3,4]thiadiazolo[2′,3′:2,3]imidazo[4,5-c]pyridin-6(5H)-yl)-2-oxoethoxy)pyridin-2-yl)cyclopropanesulfonamide] | 14 |
| Cc1nc(C)c(C2c3c(nc4sc(C)nn34)CCN2C(=O)COc2ccc(NS(C)(=O)=O)nc2Cl)s1 (stereo not shown) [Example 1.68.2, N-(6-chloro-5-(2-(5-(2,4-dimethylthiazol-5-yl)-2-methyl-7,8-dihydro-[1,3,4]thiadiazolo[2′,3′:2,3]imidazo[4,5-c]pyridin-6(5H)-yl)-2-oxoethoxy)pyridin-2-yl)methanesulfonamide] | 9 |
| CCc1nc(N2CCCS2(=O)=O)ccc1OCC(=O)N1CCc2nc3sc(CF)nn3c2C1c1ncc(C)cc1F (stereo not shown) [Example 7.2.1, 2-((6-(1,1-dioxidoisothiazolidin-2-yl)-2-ethylpyridin-3-yl)oxy)-1-(5-(3-fluoro-5-methylpyridin-2-yl)-2-(fluoromethyl)-7,8-dihydro-[1,3,4]thiadiazolo[2′,3′:2,3]imidazo[4,5-c]pyridin-6(5H)-yl)ethanone] | 9 |
| Cc1cnc(C2c3c(nc4sc(C)nn34)CCN2C(=O)COc2ccc(C(=O)N(C)C3CC3)nc2Cl)c(F)c1 (stereo not shown) [Example 1.31.14, 6-chloro-N-cyclopropyl-5-(2-(5-(3-fluoro-5-methylpyridin-2-yl)-2-methyl-7,8-dihydro-[1,3,4]thiadiazolo[2′,3′:2,3]imidazo[4,5-c]pyridin-6(5H)-yl)-2-oxoethoxy)-N-methylpicolinamide] | 32 |
